Target: T1, (H^+ +K^+)-ATPase (Canis lupus familiaris, UniProt P50996)
T1 construct: from tissue; host or cells: gastric glandular mucosa of mongrel dogs (microsomes from the 15-30% sucrose interface, lyophilized)
Test: Inhibition of (H^+ +K^+)-ATPase from Canine Gastric Mucosa
Format: biochemical, canine (mongrel dogs)
Conditions: for IC50: canine gastric mucosa microsomes, 30 min preincubation at 37°, pH 6.0, K^+-stimulated minus basal activity
Description: The antisecretory activity of the compounds of this invention illustrated in the Examples was tested by the following method.
Inhibition of ([…] +K^+)-ATPase from Canine Gastric Mucosa
Mongrel dogs weighing 15 to 25 kilograms were fasted for twenty-four hours, with water provided ad libitum. The animals were anesthetized with pentobarbital and the stomachs were removed. Subsequent tissue manipulations and subcellular fractionations were performed at 0° to 4° C. After the stomachs were cut open and rinsed with tap water, the antral and cardiac regions were removed and the remaining tissue was rinsed three times in saline. The glandular mucosa was removed mechanically, chopped finely in a medium containing 10 mM Tris hydrochloride (pH 7.4) and 250 mM sucrose, and homogenized. The homogenate was centrifuged at 20,000×g for twenty minutes and the pellet discarded. The supernatant was then centrifuged at 150,000xg for ninety minutes and the supernatant discarded. The pellet was resuspended in the Tris-HCl/sucrose medium by homogenization. Part (2 ml) of the resultant microsomal suspension was layered onto a step gradient consisting of 9 ml of 15% sucrose above 12 ml of 30% sucrose, each sucrose solution being buffered with 10 mM Tris hydrochloride (pH 7.4) containing 0.01% sodium azide. The microsomes retained at the 15-30% sucrose interface, after centrifugation at 250,000×g for sixty minutes, were used as the source of (H^+ +K^+)-ATPase. Microsomal preparations were lyophilized, a process that assured potassium ion permiability, and stored at -10° until used.
The (H^+ +K^+)-ATPase activity for each test compound was determined, in duplicate, by measuring the release of inorganic phosphate, which was assayed according to the method of J. ChandraRajan and L. Klein., Anal. Biochem., 72. 407-412 (1976). […] At least fifteen minutes later, the optical absorbance at 870 nm (which was proportional to inorganic phosphate concentration up to 100 nmoles per tube, as determined by a standard curve) was obtained. […]

T1 sequence (P50996 whole entry): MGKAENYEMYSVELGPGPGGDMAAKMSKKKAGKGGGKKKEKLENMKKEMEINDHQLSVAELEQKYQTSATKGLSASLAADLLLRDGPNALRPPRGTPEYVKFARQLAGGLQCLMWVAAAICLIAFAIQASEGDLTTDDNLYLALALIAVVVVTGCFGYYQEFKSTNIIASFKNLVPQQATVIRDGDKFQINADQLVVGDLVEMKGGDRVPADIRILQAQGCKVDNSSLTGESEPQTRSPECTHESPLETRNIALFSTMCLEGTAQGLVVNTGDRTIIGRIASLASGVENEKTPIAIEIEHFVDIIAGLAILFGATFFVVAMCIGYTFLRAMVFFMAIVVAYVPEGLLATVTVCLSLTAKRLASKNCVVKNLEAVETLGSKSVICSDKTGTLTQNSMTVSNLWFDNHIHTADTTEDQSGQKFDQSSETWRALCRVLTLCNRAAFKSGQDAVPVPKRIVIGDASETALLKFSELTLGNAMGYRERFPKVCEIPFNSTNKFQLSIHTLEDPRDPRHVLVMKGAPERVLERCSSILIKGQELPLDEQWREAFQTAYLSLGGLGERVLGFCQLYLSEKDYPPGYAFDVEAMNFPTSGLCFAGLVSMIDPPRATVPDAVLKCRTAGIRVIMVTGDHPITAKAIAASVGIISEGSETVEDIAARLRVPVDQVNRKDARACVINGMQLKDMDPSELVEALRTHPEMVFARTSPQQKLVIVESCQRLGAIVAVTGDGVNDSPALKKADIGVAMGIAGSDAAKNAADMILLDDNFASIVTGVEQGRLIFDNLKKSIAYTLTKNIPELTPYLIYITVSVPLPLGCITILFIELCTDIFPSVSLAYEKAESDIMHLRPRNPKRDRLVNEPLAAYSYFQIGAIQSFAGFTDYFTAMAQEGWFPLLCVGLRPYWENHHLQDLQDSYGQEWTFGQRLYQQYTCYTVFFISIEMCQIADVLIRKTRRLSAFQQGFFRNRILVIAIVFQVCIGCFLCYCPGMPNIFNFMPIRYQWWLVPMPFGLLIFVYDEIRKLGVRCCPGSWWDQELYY
T1 sequence (P33704 whole entry partner): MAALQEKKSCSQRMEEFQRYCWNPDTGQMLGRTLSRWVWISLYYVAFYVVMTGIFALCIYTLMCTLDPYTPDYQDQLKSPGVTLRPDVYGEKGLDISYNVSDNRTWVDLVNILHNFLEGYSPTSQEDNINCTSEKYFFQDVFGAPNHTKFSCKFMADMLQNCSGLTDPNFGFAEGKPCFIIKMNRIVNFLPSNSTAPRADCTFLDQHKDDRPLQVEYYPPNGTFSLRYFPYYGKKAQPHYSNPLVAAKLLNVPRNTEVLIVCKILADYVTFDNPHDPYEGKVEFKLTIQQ

Row | IC50 [µM] | SMILES | inhibition of (H^+ +K^+)-ATPase activity (in words) (as shown in Table I)
1 | 3.88 | [O-][S+](Cc1cnc2ccccn12)c1nc2ccccc2[nH]1 (stereo not drawn) [Example 2, 2-[(imidazo[1,2-a]pyridin-3-ylmethyl)sulfinyl]-1H-benzimidazole 1/4 hydrate] | –
2 | > 100 | [O-][S+](Cc1cn2ccccc2n1)c1nc2ccccc2[nH]1 (stereo not drawn) [Example 4, 2-[(imidazo[1,2-a]pyridin-2-ylmethyl)sulfinyl]-1H-benzimidazole] | not inhibiting (H^+ +K^+)-ATPase activity
